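Dose response: 5 concentrations. Exposure: 48 h. Format: 96-well plates. Endpoint: linear interpolation; highest concentration if not reached. GI50 marks 50% less growth.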 The source made the active and inactive calls. Cut-off read from the data, not from the text of the source: active = GI50 up to about 1.1 µM and inactive = higher.
What was measured:
Test in all cases: NCI anticancer screen, dose series, 48 h
HCT-15 = test system: HCT-15
NCI-H460 = test system: NCI-H460
SN12C = test system: SN12C
NCI/ADR-RES = test system: NCI/ADR-RES
A549 = test system: A549
SF-295 = test system: SF-295
IGROV-1 = test system: IGROV-1
SK-MEL-28 = test system: SK-MEL-28
SF-268 = test system: SF-268
COLO 205 = test system: COLO 205
HT-29 = test system: HT-29
HOP-62 = test system: HOP-62
OVCAR-5 = test system: OVCAR-5
T47D = test system: T47D
K562 = test system: K562
SF-539 = test system: SF-539
SNB-75 = test system: SNB-75
MDA-MB-435 = test system: MDA-MB-435
SNB-19 = test system: SNB-19

Row | Compound | GI50 (HCT-15) | GI50 (NCI-H460) | GI50 (SN12C) | GI50 (NCI/ADR-RES) | GI50 (A549) | GI50 (SF-295) | GI50 (IGROV-1) | GI50 (SK-MEL-28) | GI50 (SF-268) | GI50 (COLO 205) | GI50 (HT-29) | GI50 (HOP-62) | GI50 (OVCAR-5) | GI50 (T47D) | GI50 (K562) | GI50 (SF-539) | GI50 (SNB-75) | GI50 (MDA-MB-435) | GI50 (SNB-19)
1 | O=C(O)c1cc(CCc2cc(O)ccc2O)ccc1O | > 100 µM | > 100 µM (inactive) | > 100 µM (inactive) | > 100 µM (inactive) | > 100 µM (inactive) | > 100 µM (inactive) | > 100 µM (inactive) | > 100 µM (inactive) | > 100 µM (inactive) | > 100 µM (inactive) | > 100 µM (inactive) | > 100 µM (inactive) | > 100 µM (inactive) | > 100 µM (inactive) | 37.2 µM (inactive) | > 100 µM (inactive) | > 100 µM (inactive) | > 100 µM (inactive) | 
2 | O=C1C(NCCc2cc(Cl)c(O)c(Cl)c2)=CC(=O)c2[nH]cnc21 | 39.1 µM | 26.5 µM (inactive) | 30 µM (inactive) | > 100 µM (inactive) | 33.9 µM (inactive) | 18 µM (inactive) | 18.5 µM (inactive) | 28 µM (inactive) |  | 21.2 µM (inactive) | 40.4 µM (inactive) | 44 µM (inactive) | 88.7 µM (inactive) | 21.7 µM (inactive) | 26 µM (inactive) | 39.5 µM (inactive) |  | 16.7 µM (inactive) | 33.7 µM (inactive)
3 | CCCCc1ccc(Nc2nc(O)c3ncn(COCCO)c3n2)cc1 | > 100 µM |  | > 100 µM (inactive) | > 100 µM (inactive) | > 100 µM (inactive) | > 100 µM (inactive) | > 100 µM (inactive) |  | > 100 µM (inactive) | > 100 µM (inactive) | > 100 µM (inactive) | > 100 µM (inactive) | > 100 µM (inactive) | 73.1 µM (inactive) | 29.8 µM (inactive) | > 100 µM (inactive) | > 100 µM (inactive) | > 100 µM (inactive) | 75.7 µM (inactive)
4 | Nc1nc(Cl)cc(Nc2ccc3c(c2)CCC3)n1 | 35.9 µM | 55.8 µM (inactive) | 80.2 µM (inactive) | 28.6 µM (inactive) | > 100 µM (inactive) | > 100 µM (inactive) | 41.5 µM (inactive) | > 100 µM (inactive) | > 100 µM (inactive) | 44.9 µM (inactive) | 26.1 µM (inactive) |  | > 100 µM (inactive) | > 100 µM (inactive) | 32.7 µM (inactive) | > 100 µM (inactive) |  | > 100 µM (inactive) | > 100 µM (inactive)
5 | O=C1N(CN2CCOCC2)CN(CN2CCOCC2)C(=O)N1Cc1ccc(CN2C(=O)N(CN3CCOCC3)CN(CN3CCOCC3)C2=O)cc1 | 31.2 µM | 36.9 µM (inactive) | 59.8 µM (inactive) | 49.9 µM (inactive) | 40.2 µM (inactive) | > 100 µM (inactive) | > 100 µM (inactive) | 31.3 µM (inactive) | 28.4 µM (inactive) | 43 µM (inactive) | 42 µM (inactive) | > 100 µM (inactive) | > 100 µM (inactive) | 53 µM (inactive) |  | 44.8 µM (inactive) | 89.7 µM (inactive) | 26.4 µM (inactive) | 97.7 µM (inactive)
6 | O=C1c2ccccc2-n2c1nc1ccc(Cl)cc1c2=O | 56.1 µM | > 100 µM (inactive) | > 100 µM (inactive) | > 100 µM (inactive) | 26.1 µM (inactive) | 42.3 µM (inactive) | 78.2 µM (inactive) |  |  | > 100 µM (inactive) | > 100 µM (inactive) | 30.8 µM (inactive) | > 100 µM (inactive) | 0.474 µM (active) | 14.3 µM (inactive) | > 100 µM (inactive) | 27.5 µM (inactive) | 15.6 µM (inactive) | > 100 µM (inactive)
7 | Cc1csc2c1-n1cccc1C2=O | > 100 µM | > 100 µM (inactive) | > 100 µM (inactive) | > 100 µM (inactive) | > 100 µM (inactive) | > 100 µM (inactive) | > 100 µM (inactive) | > 100 µM (inactive) | > 100 µM (inactive) | > 100 µM (inactive) | > 100 µM (inactive) | 53 µM (inactive) | > 100 µM (inactive) | > 100 µM (inactive) | > 100 µM (inactive) |  | > 100 µM (inactive) | 67.3 µM (inactive) | > 100 µM (inactive)
8 | [N-]=[N+]=Nc1cc(=O)n2c3c(cccc13)CCC2 | > 100 µM | > 100 µM (inactive) | > 100 µM (inactive) | > 100 µM (inactive) | > 100 µM (inactive) | > 100 µM (inactive) | > 100 µM (inactive) | > 100 µM (inactive) | > 100 µM (inactive) | > 100 µM (inactive) | > 100 µM (inactive) | > 100 µM (inactive) |  | > 100 µM (inactive) | > 100 µM (inactive) | > 100 µM (inactive) | > 100 µM (inactive) | > 100 µM (inactive) | 
